# Test results from patent US10954219B2, “1,3-benzodioxole derivative” (DAIICHI SANKYO COMPANY, LIMITED, priority 2014, dated 2021).
# Where a name gives a salt, the structure may show the parent alone.
# How the values were obtained:
# PRC2-EZH1 (WT EZH1) = PRC2-EZH1 (WT EZH1) (Homo sapiens, UniProt Q92800); experiment: EZH1 methyltransferase inhibitory activity evaluation
# [1] = tested on: Intracellular H3K27me3 in HCT116 cells; experiment: Intracellular H3K27me3 inhibitory activity evaluation; format: cell-based; conditions: Homo sapiens, HCT-116, 72 h, 3 days, AlphaLISA, read-out: Test Example 3 H3K27me3 inhibition (HCT116) IC50
# PRC2-EZH2 (WT EZH2) = target: T1, PRC2-EZH2 (WT EZH2) (Homo sapiens, UniProt Q15910); experiment: EZH2 methyltransferase inhibitory activity evaluation; format: biochemical; conditions: PRC2-EZH2, biotin-H3 peptide, 3H-SAM, 2 hours
# T1 construct: made in house
# T1 sequence (Q15910 whole entry): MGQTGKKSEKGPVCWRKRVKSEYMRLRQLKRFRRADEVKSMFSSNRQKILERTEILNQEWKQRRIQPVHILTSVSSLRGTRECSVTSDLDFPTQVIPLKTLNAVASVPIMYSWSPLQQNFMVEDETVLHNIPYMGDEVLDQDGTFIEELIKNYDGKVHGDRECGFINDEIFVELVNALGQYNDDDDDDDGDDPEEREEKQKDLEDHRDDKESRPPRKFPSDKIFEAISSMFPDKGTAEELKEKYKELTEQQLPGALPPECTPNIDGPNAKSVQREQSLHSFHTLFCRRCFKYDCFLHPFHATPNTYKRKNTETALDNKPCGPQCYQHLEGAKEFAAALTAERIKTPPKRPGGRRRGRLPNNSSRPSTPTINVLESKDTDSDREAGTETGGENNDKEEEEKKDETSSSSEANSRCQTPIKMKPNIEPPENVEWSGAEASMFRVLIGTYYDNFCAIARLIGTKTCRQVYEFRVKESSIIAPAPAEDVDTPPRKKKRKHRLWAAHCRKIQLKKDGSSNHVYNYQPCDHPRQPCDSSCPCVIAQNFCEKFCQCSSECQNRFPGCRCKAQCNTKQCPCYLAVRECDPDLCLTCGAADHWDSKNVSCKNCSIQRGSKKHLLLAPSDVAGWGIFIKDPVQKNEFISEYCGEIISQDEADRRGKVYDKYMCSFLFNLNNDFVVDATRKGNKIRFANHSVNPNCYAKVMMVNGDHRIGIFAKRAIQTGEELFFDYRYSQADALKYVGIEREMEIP
# T1 sequence (O75530 whole entry partner): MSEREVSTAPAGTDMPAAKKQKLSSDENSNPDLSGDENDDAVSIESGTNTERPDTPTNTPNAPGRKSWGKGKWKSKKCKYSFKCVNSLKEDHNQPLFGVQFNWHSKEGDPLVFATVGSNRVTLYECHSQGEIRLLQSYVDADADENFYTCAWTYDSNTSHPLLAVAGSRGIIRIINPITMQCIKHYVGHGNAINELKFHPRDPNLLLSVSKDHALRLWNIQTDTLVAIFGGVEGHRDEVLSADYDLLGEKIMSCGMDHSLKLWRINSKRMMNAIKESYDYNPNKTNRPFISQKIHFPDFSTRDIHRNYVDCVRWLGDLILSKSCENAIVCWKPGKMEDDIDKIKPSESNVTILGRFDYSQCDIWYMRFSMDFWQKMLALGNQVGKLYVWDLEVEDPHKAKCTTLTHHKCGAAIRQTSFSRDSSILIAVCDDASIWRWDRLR
# T1 sequence (Q15022 whole entry partner): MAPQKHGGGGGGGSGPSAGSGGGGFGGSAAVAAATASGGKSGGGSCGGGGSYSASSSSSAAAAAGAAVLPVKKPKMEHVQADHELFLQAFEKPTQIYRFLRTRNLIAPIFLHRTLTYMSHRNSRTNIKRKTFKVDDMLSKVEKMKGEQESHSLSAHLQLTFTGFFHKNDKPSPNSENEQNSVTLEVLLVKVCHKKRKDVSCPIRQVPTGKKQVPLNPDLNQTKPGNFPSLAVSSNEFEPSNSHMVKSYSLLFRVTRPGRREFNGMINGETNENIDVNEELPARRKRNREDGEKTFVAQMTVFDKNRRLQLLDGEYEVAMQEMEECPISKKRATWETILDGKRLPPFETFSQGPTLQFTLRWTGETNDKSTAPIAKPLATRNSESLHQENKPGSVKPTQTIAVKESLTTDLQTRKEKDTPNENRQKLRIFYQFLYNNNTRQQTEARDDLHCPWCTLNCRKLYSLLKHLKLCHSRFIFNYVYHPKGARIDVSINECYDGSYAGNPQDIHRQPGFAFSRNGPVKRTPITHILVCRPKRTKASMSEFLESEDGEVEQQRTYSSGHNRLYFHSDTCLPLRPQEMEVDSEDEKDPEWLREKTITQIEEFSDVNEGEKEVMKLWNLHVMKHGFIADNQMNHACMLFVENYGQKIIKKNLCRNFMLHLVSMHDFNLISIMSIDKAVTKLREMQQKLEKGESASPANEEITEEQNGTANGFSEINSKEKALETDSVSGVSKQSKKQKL
# PRC2-EZH1 (WT EZH1), sequence (Q92800 whole entry): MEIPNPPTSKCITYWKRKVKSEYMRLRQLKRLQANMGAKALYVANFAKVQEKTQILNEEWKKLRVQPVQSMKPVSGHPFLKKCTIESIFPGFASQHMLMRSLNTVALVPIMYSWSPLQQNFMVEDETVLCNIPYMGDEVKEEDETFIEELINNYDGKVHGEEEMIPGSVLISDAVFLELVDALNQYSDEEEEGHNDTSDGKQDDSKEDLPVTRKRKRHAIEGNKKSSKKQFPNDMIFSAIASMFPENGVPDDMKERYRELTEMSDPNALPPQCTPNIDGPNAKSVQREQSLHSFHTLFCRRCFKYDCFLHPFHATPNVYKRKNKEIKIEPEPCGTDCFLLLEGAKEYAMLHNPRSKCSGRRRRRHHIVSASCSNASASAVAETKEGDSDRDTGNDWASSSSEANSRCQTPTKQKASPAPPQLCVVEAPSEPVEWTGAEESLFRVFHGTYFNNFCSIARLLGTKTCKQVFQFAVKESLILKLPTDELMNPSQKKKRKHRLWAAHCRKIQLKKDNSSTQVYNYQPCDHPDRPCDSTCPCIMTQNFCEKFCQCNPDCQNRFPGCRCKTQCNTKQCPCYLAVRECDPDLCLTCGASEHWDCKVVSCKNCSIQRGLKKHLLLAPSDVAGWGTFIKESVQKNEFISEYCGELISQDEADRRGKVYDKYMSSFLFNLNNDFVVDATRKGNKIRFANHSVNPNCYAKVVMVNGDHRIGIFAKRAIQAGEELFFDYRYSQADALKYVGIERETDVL
# PRC2-EZH1 (WT EZH1), sequence (O75530 whole entry partner): as the sequence (O75530 whole entry partner) above
# PRC2-EZH1 (WT EZH1), sequence (Q15022 whole entry partner): as the sequence (Q15022 whole entry partner) above
# PRC2-EZH1 (WT EZH1), sequence (Q09028 whole entry partner): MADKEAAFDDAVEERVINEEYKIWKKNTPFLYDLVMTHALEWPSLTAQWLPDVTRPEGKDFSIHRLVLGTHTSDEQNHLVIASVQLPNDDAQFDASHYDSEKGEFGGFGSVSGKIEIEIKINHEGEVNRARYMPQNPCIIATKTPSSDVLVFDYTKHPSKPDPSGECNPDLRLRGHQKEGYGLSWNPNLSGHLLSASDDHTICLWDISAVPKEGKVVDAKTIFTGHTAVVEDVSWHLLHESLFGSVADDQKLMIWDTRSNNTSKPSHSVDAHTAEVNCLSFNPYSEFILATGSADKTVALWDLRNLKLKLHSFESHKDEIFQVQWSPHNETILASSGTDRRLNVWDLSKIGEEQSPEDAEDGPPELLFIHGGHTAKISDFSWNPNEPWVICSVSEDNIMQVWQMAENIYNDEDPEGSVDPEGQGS
# PRC2-EZH1 (WT EZH1), sequence (Q6ZN18 whole entry partner): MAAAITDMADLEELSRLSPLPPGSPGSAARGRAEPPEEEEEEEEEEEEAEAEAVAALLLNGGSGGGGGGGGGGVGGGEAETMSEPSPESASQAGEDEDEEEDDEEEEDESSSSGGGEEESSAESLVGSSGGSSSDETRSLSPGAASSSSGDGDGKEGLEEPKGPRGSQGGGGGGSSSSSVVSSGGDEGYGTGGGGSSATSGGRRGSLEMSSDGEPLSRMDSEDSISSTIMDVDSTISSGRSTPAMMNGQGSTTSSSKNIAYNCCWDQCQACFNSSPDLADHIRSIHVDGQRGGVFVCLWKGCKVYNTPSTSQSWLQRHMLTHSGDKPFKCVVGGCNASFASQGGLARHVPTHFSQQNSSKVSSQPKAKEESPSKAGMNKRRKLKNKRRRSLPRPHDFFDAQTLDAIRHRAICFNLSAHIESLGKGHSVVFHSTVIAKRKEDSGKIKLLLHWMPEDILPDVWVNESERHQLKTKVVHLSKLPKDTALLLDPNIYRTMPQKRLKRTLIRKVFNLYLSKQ
SMILES,IC50 (PRC2-EZH1 (WT EZH1)),IC50 [1],IC50 (PRC2-EZH2 (WT EZH2))
"CCCc1cc(C)[nH]c(=O)c1CNC(=O)c1cc(Br)c2c(c1C)O[C@@](C)(C1CCN(CC)CC1)O2 [Example 12, (2R)-7-Bromo-2-(1-ethyl-4-piperidyl)-2,4-dimethyl-N-[(6-methyl-2-oxo-4-propyl-1,2-dihydropyridin-3-yl)methyl]-1,3-benzodioxole-5-carboxamide]",200 nM,140 nM,28 nM
"Cc1cc(C)c(CNC(=O)c2cc(Br)c3c(c2C)OC(C)(CN2CCNCC2)O3)c(=O)[nH]1 (stereo not drawn) [Example 42, 7-Bromo-N-[(4,6-dimethyl-2-oxo-1,2-dihydropyridin-3-yl)methyl]-2,4-dimethyl-2-(piperazin-1-ylmethyl)-1,3-benzodioxole-5-carboxamide]",190 nM,67 nM,27 nM
"Cc1cc(C)c(CNC(=O)c2cc(F)c3c(c2C)OC(C)([C@H]2CC[C@H](N(C)C)CC2)O3)c(=O)[nH]1 (relative stereo) [Example 46, 2-[trans-4-(Dimethylamino)cyclohexyl]-N-[(4,6-dimethyl-2-oxo-1,2-dihydropyridin-3-yl)methyl]-7-fluoro-2,4-dimethyl-1,3-benzodioxole-5-carboxamide]",72 nM,3.4 nM,6.7 nM
"Cc1cc(C)c(CNC(=O)c2ccc3c(c2C)OC(C)([C@H]2CC[C@H](N(C)C)CC2)O3)c(=O)[nH]1 (relative stereo) [Example 23, 2-[trans-4-(Dimethylamino)cyclohexyl]-N-[(4,6-dimethyl-2-oxo-1,2-dihydropyridin-3-yl)methyl]-2,4-dimethyl-1,3-benzodioxole-5-carboxamide]",4.1 nM,2.8 nM,5.6 nM
"Cc1cc(C)c(CNC(=O)c2cc(Br)c3c(c2C)OC(C)(CC2CCN(C)CC2)O3)c(=O)[nH]1 (stereo not drawn) [Example 25, 7-Bromo-N-[(4,6-dimethyl-2-oxo-1,2-dihydropyridin-3-yl)methyl]-2,4-dimethyl-2-[(1-methyl-4-piperidyl)methyl]-1,3-benzodioxole-5-carboxamide]",110 nM,45 nM,12 nM
"CN[C@H]1CC[C@H](C2(C)Oc3c(Cl)cc(C(=O)NCc4c(C)cc(C)[nH]c4=O)c(C)c3O2)CC1 (relative stereo) [Example 32, 7-Chloro-N-[(4,6-dimethyl-2-oxo-1,2-dihydropyridin-3-yl)methyl]-2,4-dimethyl-2-[trans-4-(methylamino)cyclohexyl]-1,3-benzodioxole-5-carboxamide]",30 nM,4.8 nM,17 nM
"Cc1cc(C)c(CNC(=O)c2cc(Br)c3c(c2C)O[C@@](C)(C2CCN(C)CC2)O3)c(=O)[nH]1 [Example 8, (2R)-7-Bromo-N-[(4,6-dimethyl-2-oxo-1,2-dihydropyridin-3-yl)methyl]-2,4-dimethyl-2-(1-methyl-4-piperidyl)-1,3-benzodioxole-5-carboxamide]",97 nM,6 nM,16 nM
"Cc1cc(C)c(CNC(=O)c2cc(Br)c3c(c2C)OC(C)(CN2CCN(C)CC2)O3)c(=O)[nH]1 (stereo not drawn) [Example 43, 7-Bromo-N-[(4,6-dimethyl-2-oxo-1,2-dihydropyridin-3-yl)methyl]-2,4-dimethyl-2-[(4-methylpiperazin-1-yl)methyl]-1,3-benzodioxole-5-carboxamide]",380 nM,44 nM,41 nM
"CCc1cc(C)[nH]c(=O)c1CNC(=O)c1cc(Br)c2c(c1C)OC(C)([C@H]1CC[C@H](N(C)C)CC1)O2 (relative stereo) [Example 17, 7-Bromo-2-[trans-4-(dimethylamino)cyclohexyl]-N-[(4-ethyl-6-methyl-2-oxo-1,2-dihydropyridin-3-yl)methyl]-2,4-dimethyl-1,3-benzodioxole-5-carboxamide]",17 nM,1.2 nM,23 nM
"Cc1cc(C)c(CNC(=O)c2cc(Cl)c3c(c2Cl)OC(C)([C@H]2CC[C@H](N(C)C)CC2)O3)c(=O)[nH]1 (relative stereo) [Example 53, 4,7-Dichloro-2-[trans-4-(dimethylamino)cyclohexyl]-N-[(4,6-dimethyl-2-oxo-1,2-dihydropyridin-3-yl)methyl]-2-methyl-1,3-benzodioxole-5-carboxamide]",26 nM,0.63 nM,13 nM
"Cc1cc(C)c(CNC(=O)c2cc(Cl)c3c(c2C)OC(C)([C@H]2CC[C@H](N(C)C=O)CC2)O3)c(=O)[nH]1 (relative stereo) [Example 33, 7-Chloro-N-[(4,6-dimethyl-2-oxo-1,2-dihydropyridin-3-yl)methyl]-2-[trans-4-[formyl(methyl)amino]cyclohexyl]-2,4-dimethyl-1,3-benzodioxole-5-carboxamide]",260 nM,14 nM,28 nM
"Cc1cc(C)c(CNC(=O)c2cc(C)c3c(c2C)O[C@@](C)([C@H]2CC[C@H](N(C)C)CC2)O3)c(=O)[nH]1 (single isomer, unassigned) [Example 48]",8.9 nM,0.48 nM,8 nM
"Cc1cc(C)c(CNC(=O)c2cc(Br)c3c(c2C)OC(C)([C@H]2CC[C@H](CN(C)C)CC2)O3)c(=O)[nH]1 (relative stereo) [Example 24, 7-Bromo-2-[trans-4-[(dimethylamino)methyl]cyclohexyl]-N-[(4,6-dimethyl-2-oxo-1,2-dihydropyridin-3-yl)methyl]-2,4-dimethyl-1,3-benzodioxole-5-carboxamide]",140 nM,19 nM,12 nM
"CCCc1cc(C)[nH]c(=O)c1CNC(=O)c1cc(Br)c2c(c1C)OC(C)([C@H]1CC[C@H](N(C)C)CC1)O2 (relative stereo) [Example 18, 7-Bromo-2-[trans-4-(dimethylamino)cyclohexyl]-2,4-dimethyl-N-[(6-methyl-2-oxo-4-propyl-1,2-dihydropyridin-3-yl)methyl]-1,3-benzodioxole-5-carboxamide]",19 nM,5.8 nM,23 nM
"Cc1cc(C)c(CNC(=O)c2cc(C)c3c(c2C)OC(C)([C@@H]2CC[C@@H](N(C)C)CO2)O3)c(=O)[nH]1 (stereo partly drawn) [Example 49, 2-[(2S,5R)-5-(Dimethylamino)tetrahydropyran-2-yl]-N-[(4,6-dimethyl-2-oxo-1,2-dihydropyridin-3-yl)methyl]-2,4,7-trimethyl-1,3-benzodioxole-5-carboxamide]",92 nM,2.6 nM,18 nM

# Second part, the compound after the results:
IC50 (PRC2-EZH1 (WT EZH1)),IC50 [1],IC50 (PRC2-EZH2 (WT EZH2)),SMILES
7.3 nM,3.7 nM,14 nM,"Cc1cc(C)c(CNC(=O)c2cc(C3=CCCCC3)c3c(c2C)OC(C)([C@H]2CC[C@H](N(C)C)CC2)O3)c(=O)[nH]1 (relative stereo) [Example 60, 7-(Cyclohexen-1-yl)-2-[trans-4-(dimethylamino)cyclohexyl]-N-[(4,6-dimethyl-2-oxo-1,2-dihydropyridin-3-yl)methyl]-2,4-dimethyl-1,3-benzodioxole-5-carboxamide]"
68 nM,6.4 nM,23 nM,"CCN1CCN(c2ccc(-c3cc(C(=O)NCc4c(C)cc(C)[nH]c4=O)c(C)c4c3OC(C)(C3CCOCC3)O4)cn2)CC1 (stereo not drawn) [Example 56, N-[(4,6-Dimethyl-2-oxo-1,2-dihydropyridin-3-yl)methyl]-7-[6-(4-ethylpiperazin-1-yl)-3-pyridyl]-2,4-dimethyl-2-(tetrahydropyran-4-yl)-1,3-benzodioxole-5-carboxamide]"
29 nM,1.6 nM,18 nM,"Cc1cc(C)c(CNC(=O)c2cc(C3CC3)c3c(c2C)OC(C)([C@H]2CC[C@H](N(C)C)CC2)O3)c(=O)[nH]1 (relative stereo) [Example 68, 7-Cyclopropyl-2-[trans-4-(dimethylamino)cyclohexyl]-N-[(4,6-dimethyl-2-oxo-1,2-dihydropyridin-3-yl)methyl]-2,4-dimethyl-1,3-benzodioxole-5-carboxamide]"
76 nM,13 nM,17 nM,"CC(=O)c1cc(C(=O)NCc2c(C)cc(C)[nH]c2=O)c(C)c2c1OC(C)([C@H]1CC[C@H](N(C)C)CC1)O2 (relative stereo) [Example 72, 7-Acetyl-2-[trans-4-(dimethylamino)cyclohexyl]-N-[(4,6-dimethyl-2-oxo-1,2-dihydropyridin-3-yl)methyl]-2,4-dimethyl-1,3-benzodioxole-5-carboxamide hydrochloride]"
13 nM,23 nM,29 nM,"CCCc1cc(C)[nH]c(=O)c1CNC(=O)c1cc(-c2ccc(N3CCN(CC)CC3)nc2)c2c(c1C)OC(C)([C@H]1CC[C@H](N(C)C)CC1)O2 (relative stereo) [Example 74, 2-[trans-4-(Dimethylamino)cyclohexyl]-7-[6-(4-ethylpiperazin-1-yl)-3-pyridyl]-2,4-dimethyl-N-[(6-methyl-2-oxo-4-propyl-1,2-dihydropyridin-3-yl)methyl]-1,3-benzodioxole-5-carboxamide]"
4.4 nM,2.9 nM,10 nM,"Cc1cc(C)c(CNC(=O)c2cc(C3=CCCC3)c3c(c2C)OC(C)([C@H]2CC[C@H](N(C)C)CC2)O3)c(=O)[nH]1 (relative stereo) [Example 58, 7-(Cyclopenten-1-yl)-2-[trans-4-(dimethylamino)cyclohexyl]-N-[(4,6-dimethyl-2-oxo-1,2-dihydropyridin-3-yl)methyl]-2,4-dimethyl-1,3-benzodioxole-5-carboxamide]"
32 nM,29 nM,24 nM,"Cc1cc(C)c(CNC(=O)c2cc(-c3ccnc(N4CCN(C)CC4)c3)c3c(c2C)OC(C)([C@H]2CC[C@H](N(C)C)CC2)O3)c(=O)[nH]1 (relative stereo) [Example 69, 2-[trans-4-(Dimethylamino)cyclohexyl]-N-[(4,6-dimethyl-2-oxo-1,2-dihydropyridin-3-yl)methyl]-2,4-dimethyl-7-[2-(4-methylpiperazin-1-yl)-4-pyridyl]-1,3-benzodioxole-5-carboxamide]"
